Source: patent US6034236A, “Method for producing of phthalocyanine compound” (Nippon Shokubai Co., Ltd., priority 1997, dated 2000)

How the values were obtained:
[1] = Visible absorption spectrum (largest absorption wavelength, ε); assay type: physicochemical
[2] = Solubility in 2-ethoxyethanol

Row | Visible absorption spectrum, Thin film [1] [nm] | Largest absorption wavelength in 2-ethoxyethanol [1] [nm] | ε at largest absorption wavelength in 2-ethoxyethanol [1] | Compound | further results
1 |  |  |  | Fc1c(F)c(F)c2c(c1F)-c1nc-2nc2[n-]c(nc3nc(nc4[n-]c(n1)c1c(F)c(F)c(F)c(F)c41)-c1c(F)c(F)c(F)c(F)c1-3)c1c(F)c(F)c(F)c(F)c21.[O]=[V+2] [Example 7, hexadecafluorovanadyl phthalocyanine] | Largest absorption wavelength in 1-chloronaphthalene [1]: 710.2 nm; ε at largest absorption wavelength in 1-chloronaphthalene [1]: 1.89 × 10^5; Largest absorption wavelength in 1-chloronaphthalene ([1]; listed as Example 8): 710.1 nm; ε at largest absorption wavelength in 1-chloronaphthalene ([1]; listed as Example 8): 1.77 × 10^5
2 |  |  |  | octaphenoxyoctafluorovanadyl phthalo-cyanine [Example 11] | Largest absorption wavelength in acetone ([1]; in acetone): 720 nm
3 |  |  |  | [O]=[Ti+2].c1ccc2c(c1)-c1nc-2nc2[n-]c(nc3nc(nc4[n-]c(n1)c1ccccc41)-c1ccccc1-3)c1ccccc21 [Example 13, titanylphthalocyanine] | Largest absorption wavelength in 1-chloronaphthalene [1]: 710.5 nm; ε at largest absorption wavelength in 1-chloronaphthalene [1]: 1.33 × 10^5
4 |  |  |  | octakisphenylthiooctafluorovanadyl phthalocyanine [Example 10] | Largest absorption wavelength in toluene ([1]; in toluene): 770 nm
5 | 732.2 | 715.0 | 1.52 × 10^5 | tetrakis(2-(2-propoxy)carbonyl-6-phenylphenoxy)dodecafluorovanadyl phthalocyanine [Example 1] | 
6 | 732.3 | 714.7 | 1.22 × 10^5 | tetrakis(2-(2-tetrahydrofurfuryloxy)-carbonyl-6-phenylphenoxy)dodecafluorovanadyl phthalocyanine [Example 4] | 
7 |  |  |  | Clc1c(Cl)c(Cl)c2c(c1Cl)-c1nc-2nc2[n-]c(nc3nc(nc4[n-]c(n1)c1c(Cl)c(Cl)c(Cl)c(Cl)c41)-c1c(Cl)c(Cl)c(Cl)c(Cl)c1-3)c1c(Cl)c(Cl)c(Cl)c(Cl)c21.[O]=[V+2] [Example 12, hexadecachlorovanadylphthalocyanine] | Largest absorption wavelength in 1-chloronaphthalene [1]: 712.4 nm; ε at largest absorption wavelength in 1-chloronaphthalene [1]: 1.65 × 10^5
8 | 731.6 | 714.5 | 1.75 × 10^5 | tetrakis(2-(1,3-dibromo-2-propoxy)-carbonyl-6-phenylphenoxy)dodecafluorovanadyl phthalocyanine [Example 2] | 
9 |  | 709.0 | 1.26 × 10^5 | tetrakis(2-(2-ethoxyethoxy) dodecafluorovanadyl phthalocyanine [Example 14] | 
10 | 732.0 | 712.5 | 1.10 × 10^5 | tetrakis(2-(2-methoxyethoxy)carbonyl-6-methylphenoxy)dodecachlorovanadyl phthalocyanine [Example 9] | 
11 | 730.6 | 713.7 | 1.42 × 10^5 | tetrakis(2-(2-methoxyethoxy)carbonyl-6-phenylphenoxy)dodecafluorovanadyl phthalocyanine [Example 3] | 
12 | 733.0 | 715.2 | 1.37 × 10^5 | tetrakis(2-(2-ethoxyethoxy)carbonyl-6-methoxyphenoxy)dodecafluorovanadyl phthalocyanine [Example 6] | Solubility in 2-ethoxyethanol [2]: 13 wt. %
13 | 732.8 | 710.4 | 1.32 × 10^5 | tetrakis(2-(2-methoxyethoxy)carbonyl-6-methylphenoxy)dodecafluorovanadyl phthalocyanine [Example 5] | 
